# Measured values as given in US11090304B2 (Amgen Inc., priority 2018, dated 2021).
# Target: GDP-bound KRAS protein (aa 1-169), containing both G12C and C118A amino acid substitutions (Homo sapiens, UniProt P01116, C118A/G12C)
# Assay: Coupled nucleotide exchange assay (SOS-mediated, AlphaScreen)
# Assay type: biochemical
# Settings: 5 min compound pre-incubation
# Sequence of GDP-bound KRAS protein (aa 1-169), containing both G12C and C118A amino acid substitutions (P01116 1-169 isoform P01116-2 G12C/C118A): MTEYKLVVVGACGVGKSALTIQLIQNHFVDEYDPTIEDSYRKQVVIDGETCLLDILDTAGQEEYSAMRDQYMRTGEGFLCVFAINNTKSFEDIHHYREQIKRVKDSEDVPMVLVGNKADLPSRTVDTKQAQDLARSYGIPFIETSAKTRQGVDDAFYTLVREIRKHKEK
row,Structure (SMILES),Coupled exchange IC50 (5 min)
1,"C=CC(=O)N1CCN(c2nc(=O)n(-c3c(F)cccc3F)c3nc(-c4c(O)cccc4F)c(Cl)cc23)[C@@H](C)C1 [Example 60-17, 6-chloro-1-(2,6-difluorophenyl)-7-(2-fluoro-6-hydroxyphenyl)-4-((2S)-2-methyl-4-(2-propenoyl)-1-piperazinyl)pyrido[2,3-d]pyrimidin-2(1H)-one]",5.74 | nda μM
2,"C=CC(=O)N1CCN(c2nc(=O)n(-c3c(C)ccnc3C(C)C)c3nc(-c4ccc(F)cc4F)c(F)cc23)[C@@H](C)C1 (single isomer, unassigned) [Example 58-10-2]",6.31 | nda μM
3,"C=CC(=O)N1CCN(c2nc(=O)n(-c3c(CC)cccc3CC)c3nc(N4CCC(CC(C)C)C4)c(Cl)cc23)[C@@H](C)C1 (stereo partly drawn) [Example 66-12, 6-chloro-1-(2,6-diethylphenyl)-4-((2S)-2-methyl-4-(2-propenoyl)-1-piperazinyl)-7-(3-(2-methylpropyl)-1-pyrrolidinyl)pyrido[2,3-d]pyrimidin-2(1H)-one]",65 | nda μM
4,"C=CC(=O)N1CCN(c2nc(=O)n(-c3c[nH]cc3C(C)C)c3nc(-c4ccccc4F)c(Cl)cc23)[C@@H](C)C1 [Example 54-109, 6-chloro-7-(2-fluorophenyl)-4-((2S)-2-methyl-4-(2-propenoyl)-1-piperazinyl)-1-(4-(2-propanyl)-1H-pyrrol-3-yl)pyrido[2,3-d]pyrimidin-2(1H)-one]",0.355 | nda μM
5,"C=CC(=O)N1CCN(c2nc(=O)n(Cc3ccc(OC)cc3)c3nc(-c4c(O)cccc4F)c(Cl)cc23)[C@@H](C)C1 [Example 55-32, 6-chloro-7-(2-fluoro-6-hydroxyphenyl)-1-(4-methoxybenzyl)-4-((2S)-2-methyl-4-(2-propenoyl)-1-piperazinyl)pyrido[2,3-d]pyrimidin-2(1H)-one]",3.07 | nda μM
6,"C=CC(=O)N1CCN(c2nc(=O)n(-c3c(C)ccnc3C(C)C)c3nc(-c4cccc(O)c4F)c(F)cc23)[C@@H](C)C1 (atropisomer, axis not shown; (M)) [Example 72-5, (M)-6-fluoro-7-(2-fluoro-3-hydroxyphenyl)-1-(4-methyl-2-(2-propanyl)-3-pyridinyl)-4-((2S)-2-methyl-4-(2-propenoyl)-1-piperazinyl)pyrido[2,3-d]pyrimidin-2(1H)-one]",2.91 | nda μM
7,"C=CC(=O)N1CCN(c2cc(=O)n(CC(C)(C)C)c3nc(-c4ccccc4F)ccc23)[C@@H](C)C1 [Example 120, 1-(2,2-Dimethylpropyl)-7-(2-fluorophenyl)-4-((2S)-2-methyl-4-(2-propenoyl)-1-piperazinyl)-1,8-naphthyridin-2(1H)-one]",71.1 | nda μM
8,"C=CC(=O)N1CCN(c2nc(=O)n(-c3c(CC)cccc3CC)c3nc(N4CCC(CC)C4)c(Cl)cc23)[C@@H](C)C1 (stereo partly drawn) [Example 66-11, 6-chloro-1-(2,6-diethylphenyl)-7-(3-ethyl-1-pyrrolidinyl)-4-((2S)-2-methyl-4-(2-propenoyl)-1-piperazinyl)pyrido[2,3-d]pyrimidin-2(1H)-one]",29 | nda μM
9,"C=CC(=O)N1CCN(c2nc(=O)n(-c3ccccc3C(C)C)c3nc(-c4ncccc4Cl)c(Cl)cc23)[C@@H](C)C1 [Example 54-94, 6-chloro-7-(3-chloro-2-pyridinyl)-4-((2S)-2-methyl-4-(2-propenoyl)-1-piperazinyl)-1-(2-(2-propanyl)phenyl)pyrido [2,3-d]pyrimidin-2(1H)-one]",1.19 | nda μM
10,"C=CC(=O)N1CCN(c2nc(=O)n(-c3c(C)ccnc3C(C)C)c3nc(-c4ccccc4F)c(C)nc23)[C@@H](C)C1 [Example 143, 7-(2-Fluorophenyl)-6-methyl-1-(4-methyl-2-(2-propanyl)-3-pyridinyl)-4-((2S)-2-methyl-4-(2-propenoyl)-1-piperazinyl)-2(1H)-pteridinone]",0.497 | nda μM
11,"C=CC(=O)N1CCN(c2nc(=O)n(-c3ccccc3OC(F)(F)F)c3nc(-c4c(O)cccc4F)c(Cl)cc23)[C@@H](C)C1 [Example 54-49, 6-chloro-7-(2-fluoro-6-hydroxyphenyl)-4-((2S)-2-methyl-4-(2-propenoyl)-1-piperazinyl)-1-(2-(trifluoromethoxy)phenyl) pyrido[2,3-d]pyrimidin-2(1H)-one]",5.65 | nda μM
12,"C=CC(=O)N1CCN(c2cc(=O)n(CC(C)(C)C)c3nc(-c4ccccc4F)ccc23)CC1 [Example 123, 1-(2,2-Dimethylpropyl)-7-(2-fluorophenyl)-4-(4-(2-propenoyl)-1-piperazinyl)-1,8-naphthyridin-2(1H)-one]",38.6 | nda μM
13,"C=CC(=O)N1C[C@H]2CC[C@@H](C1)N2c1nc(=O)n(-c2c(C)ccnc2C(C)C)c2nc(-c3ccccc3F)c(Cl)cc12 (single isomer, unassigned) [Example 78-13, (M)-6-chloro-7-(2-fluorophenyl)-1-(4-methyl-2-(2-propanyl)-3-pyridinyl)-4-(3-(2-propenoyl)-3,8-diazabicyclo[3.2.1]octan-8-yl)pyrido[2,3-d]pyrimidin-2(1H)-one]",2.22 | nda μM
14,"C=CC(=O)N1CCN(c2nc(=O)n(-c3c(CC)cccc3CC)c3nc(N4CCC[C@H](C)C4)c(Cl)cc23)[C@@H](C)C1 [Example 66-28, 6-chloro-1-(2,6-diethylphenyl)-7-((3S)-3-methyl-1-piperindinyl)-4-((2S)-2-methyl-4-(2-propenoyl)-1-piperazinyl)pyrido[2,3-d]pyrimidin-2(1H)-one]",16.6 | nda μM
15,"C=CC(=O)N1CCN(c2nc(=O)n(-c3c(C)ccnc3CC)c3nc(-c4ccccc4F)c(F)cc23)[C@@H](C)C1 (single isomer, unassigned) [Example 57-16-1]",1.76 | nda μM
16,"C=CC(=O)N1CCN(c2nc(=O)n(-c3c(C#N)cccc3C(C)C)c3nc(-c4ccccc4F)c(Cl)cc23)[C@@H](C)C1 (single isomer, unassigned) [Example 60-20-1]",10.2 | nda μM
17,"C=CC(=O)N1CCN(c2nc(=O)n(-c3ccccc3C(C)C)c3nc(-c4ccc(F)cc4O)c(Cl)cc23)[C@@H](C)C1 (single isomer, unassigned) [Example 54-77-1]",2.71 | nda μM
18,"C=CC(=O)N1CCN(c2nc(=O)n(-c3ccccc3C)c3nc(OCCCC)c(Cl)cc23)[C@@H](C)C1 [Example 60-13, 7-butoxy-6-chloro-1-(2-methylphenyl)-4-((2S)-2-methyl-4-(2-propenoyl)-1-piperazinyl)pyrido[2,3-d]pyrimidin-2(1H)-one]",85 | nda μM
19,"C=CC(=O)N1CCN(c2nc(=O)n(-c3c(C)ccnc3C(C)C)c3nc(Cl)c(F)cc23)[C@@H](C)C1 [Example 58-21, 7-chloro-6-fluoro-1-(4-methyl-2-(2-propanyl)-3-pyridinyl)-4-((2S)-2-methyl-4-(2-propenoyl)-4-piperazinyl)pyrido[2,3-d]pyrimidin-2(1H)-one]",17.5 | nda μM
20,"C=CC(=O)N1CCN(c2nc(=O)n(-c3ccccc3C(F)(F)F)c3cc(-c4ccccc4F)c(Cl)cc23)[C@@H](C)C1 [Example 93, 6-Chloro-7-(2-fluorophenyl)-4-((2S)-2-methyl-4-(2-propenoyl)-1-piperazinyl)-1-(2-(trifluoromethyl)phenyl)-2(1H)-quinazolinone]",1.59 | nda μM
21,"C=CC(=O)N1CCN(c2nc(=O)c(-c3ccccc3C)c3cc(-c4ccccc4F)c(C)nn23)[C@@H](C)C1 [77-2, 3-(2-fluorophenyl)-2-methyl-5-(2-methylphenyl)-8-((2S)-2-methyl-4-(2-propenoyl)-1-piperazinyl)-6H-pyrimido[1,6-b]pyridazin-6-one]",77.7 | nda μM
22,"C=CC(=O)N1CCN(c2nc(=O)n(-c3ccccc3C(C)C)c3nc(-c4c(C)cnn4C)c(Cl)cc23)[C@@H](C)C1 [Example 67-3, 6-chloro-7-(1,4-dimethyl-1H-pyrazol-5-yl)-4-((2S)-2-methyl-4-(2-propenoyl)-1-piperazinyl)-1-(2-(2-propanyl)phenyl)pyrido[2,3-d]pyrimidin-2(1H)-one]",2.87 | nda μM
23,"C=CC(=O)N1CCN(c2nc(=O)n(-c3ccccc3C(C)C)c3nc(-c4cccc(OC(F)F)c4)c(Cl)cc23)[C@@H](C)C1 [Example 56-8, 6-chloro-7-(3-(difIuoromethoxy)phenyl)-4-((2S)-2-methyl-4-(2-propenoyl)-1-piperazinyl)-1-(2-(2-propanyl)phenyl)pyrido[2,3-d]pyrimidin-2(1H)-one]",1.56 | nda μM
24,"C=CC(=O)N1CCN(c2nc(=O)n(-c3ccccc3C(C)C)c3nc(-c4cc(C(F)(F)F)nn4C)c(Cl)cc23)[C@@H](C)C1 [Example 67-2, 6-chloro-4-((2S)-2-methyl-4-(2-propenoyl)-1-piperazinyl)-7-(1-methyl-3-(trifluoromethyl)-1H-pyrazol-5-yl)-1-(2-(2-propanyl)phenyl)pyrido[2,3-d]pyrimidin-2(1H)-one]",6.45 | nda μM
25,"C=CC(=O)N1CCN(c2nc(=O)n(-c3c(C)ccnc3C(C)C)c3nc(-c4cccc(F)c4O)c(F)cc23)[C@@H](C)C1 (atropisomer, axis not shown; (M)) [Example 72-3, (M)-6-fluoro-7-(3-fluoro-2-hydroxyphenyl)-1-(4-methyl-2-(2-propanyl)-3-pyridinyl)-4-((2S)-2-methyl-4-(2-propenoyl)-4-piperazinyl)pyrido[2,3-d]pyrimidin-2(1H)-one]",3.29 | nda μM

# Same assay, conditions: read-out: Coupled exchange IC50 (5 min); 5 min compound pre-incubation
row,Structure (SMILES),IC50
1,"C=CC(=O)N1CCN(c2nc(=O)n(-c3c(C)cccc3C(C)C)c3nc(Cl)c(Cl)cc23)[C@@H](C)C1 (atropisomer, axis not shown; (M)) [Example 112, (M)-6,7-Dichloro-1-(2-methyl-6-(2-propanyl)phenyl)-4-((2S)-2-methyl-4-(2-propenoyl)-1-piperazinyl)pyrido[2,3-d]pyrimidin-2(1H)-one]",2.45 µM
